# According to ChEMBL document CHEMBL4346657, “Anticancer activity, dual prooxidant/antioxidant effect and apoptosis induction profile of new bichalcophene-5-carboxamidines” (Eur J Med Chem, 2019):
# Active and inactive are the calls of the source. The rule behind the calls is not given here.
# Key:
# K562 = test: Antiproliferative activity against human K562 cells assessed as growth inhibition after 48 hrs by sulforhodamine B assay; type: functional, cell-based; conditions: K562, 48 h
# [1] = Antioxidant activity assessed as DPPH radical scavenging activity incubated in dark for 30 mins by spectrophotometric method relative to control; type: functional; set-up: concentration or dose not given beside the values
# HCT-116 [2] = test: Induction of apoptosis in human HCT116 cells assessed as increase in caspase 9 mRNA expression at 100 nM after 6 hrs hrs by SYBR green dye-based qRT-PCR analysis relative to control; type: functional
# Erythrocyte [3] = test: (§1) Haemolytic activity in human erythrocytes assessed as induction of hemolysis at 0.625 mM after 30 mins relative to H202; type: cell-based; conditions: erythrocyte, 0.5 h, 625 µM
# [4] = Haemolytic activity in human erythrocytes assessed as induction of hemolysis at 2.5 mM after 30 mins relative to H202; type: cell-based, Erythrocyte; conditions: erythrocytes, read-out: Activity
# HCT-116 [5] = test: […] in CDK1 mRNA expression in human HCT116 cells at 100 nM after 6 hrs hrs by SYBR green dye-based qRT-PCR analysis relative to control; type: functional
# [6] = Antioxidant activity assessed as ABTS radical scavenging activity by spectrophotometric method relative to ascorbic acid; type: functional
# [7] = Antioxidant activity assessed as ABTS radical scavenging activity by spectrophotometric analysis relative to control; type: functional; set-up: concentration or dose not given beside the values; conditions: dose or concentration not given here
# [8] = (§2) Selectivity index, ratio of IC50 for human WI38 cells to GI50 for human NCI60 cells
# [9] = Haemolytic activity in human erythrocytes assessed as induction of hemolysis at 5 mM after 30 mins relative to H202; type: cell-based, Erythrocyte; conditions: read-out: Activity
# HCT-116 [10] = test: Induction of apoptosis in human HCT116 cells assessed as increase in p53 mRNA expression at 100 nM after 6 hrs hrs by SYBR green dye-based qRT-PCR analysis relative to control; type: functional
# [11] = Antioxidant activity assessed as hydroxyl radical scavenging activity after 1 hr by salicylic acid-based Fenton reaction assay; type: functional
# [12] = Pro-oxidant activity assessed as increase in bleomycin-Fe2+ induced calf thymus DNA damage at 2 mM after 1 hr by thiobarbituric acid based absorbance analysis
# Erythrocyte [13] = test: (§3) Haemolytic activity in human erythrocytes assessed as induction of hemolysis at 1.25 mM after 30 mins relative to H202; type: cell-based; conditions: erythrocyte, 0.5 h, 1250 µM
# HCT-116 [14] = test: Induction of apoptosis in human HCT116 cells assessed as increase in caspase 3 mRNA expression at 100 nM after 6 hrs hrs by SYBR green dye-based qRT-PCR analysis relative to control; type: functional
# [15] = Antioxidant activity assessed as DPPH radical scavenging activity incubated in dark for 30 mins by spectrophotometric method relative to ascorbic acid; type: functional
# [16] = Haemolytic activity in human erythrocytes assessed as induction of hemolysis at 10 mM after 30 mins relative to H202; type: cell-based, Erythrocyte; conditions: read-out: Activity
# WI-38 = test: Cytotoxicity activity against human WI38 cells assessed as reduction in cell viability measured after 48 hrs by MTT assay; type: cell-based; conditions: WI-38, 48 h
# Homo sapiens = organism: Homo sapiens; test: as §2
# HCT-116 [17] = test: Reduction in CDK1 mRNA expression in human HCT116 cells at 100 nM after 6 hrs hrs by SYBR green dye-based qRT-PCR analysis relative to control; type: functional; conditions: HCT-116, 6 h
# [18] = as §1; type: cell-based, Erythrocyte; conditions: erythrocytes, read-out: Activity
# [19] = as §3; type: cell-based, Erythrocyte; conditions: erythrocytes, read-out: Activity
SMILES,IC50 (K562; read-out: IC50) [µM],IC50 (K562; read-out: pIC50 (converted)) [µM],inhibition [1] [%],fold change (FC) (HCT-116 [2]),Activity (Erythrocyte [3]),"hemolysis at 0.5 h, 2500 µM [4] [%]",fold change (FC) (HCT-116 [5]),fold change (FC) [6],inhibition [7] [%],Selectivity Index [8],"hemolysis at 0.5 h, 5000 µM [9] [%]",fold change (FC) (HCT-116 [10]),Activity [11],Activity [12],Activity (Erythrocyte [13]),fold change (FC) (HCT-116 [14]),fold change (FC) [15],"hemolysis at 0.5 h, 10000 µM [16] [%]",IC50 (WI-38) [µM],"hemolysis at 0.5 h, 1250 µM [19] [%]",further results
N=C(N)c1ccc(-c2ccc(-c3ccccc3)s2)s1,0.24,38000,53,2.47,Non-Toxic,15.3,0.88,0.7,61.7,38.3,56.7,1.1,Active,Active,Non-Toxic,2.39,0.6,85.1,49.1,,
O=c1[nH]cc(F)c(=O)[nH]1 [FLUOROURACIL],,,,4.53,,,0.48,,,,,1.48,,,,3.92,,,8.4,,Selectivity Index (Homo sapiens): inactive; inhibition at 0.1 µM (HCT-116 [17]): 50 to 52%
COc1ccc(-c2ccc(-c3ccc(C(=N)N)s3)s2)cc1,0.18,19500,51.9,2.38,,41,0.91,0.6,59.2,43,63.7,1.06,Active,Active,,2.51,0.6,92.7,12.9,17.3,"hemolysis at 0.5 h, 625 µM [18]: 4%"
COc1cccc(-c2ccc(-c3ccc(C(=N)N)s3)s2)c1,0.18,19500,47.5,1.01,Non-Toxic,16.1,0.93,0.6,58.2,148.4,39,0.89,Active,Active,,3.71,0.5,79,77.2,3.1,
O=C1O[C@H]([C@@H](O)CO)C(O)=C1O [ASCORBIC ACID],,,,,Non-Toxic,4,,1,,,8,,,,Non-Toxic,,1,16.3,,,
